Values after ≈ are worked out from the molar mass of the structure shown.
Key:
[1] = tested on: aminoacyl-tRNA synthetases (aaRS); experiment: aaRS charging and trichloroacetic acid precipitation assay, IC50 (E. faecalis); assay type: biochemical; conditions: aaRS of E. faecalis; values are range classes
Description: (§1) IC50 determinations for the aminoacyl-tRNA synthetases (aaRS) isolated from pathogen or HeLa cells were carried out using a modification of the aaRS charging and trichloroacetic acid precipitation assay described previously (see examples: D. Kern et. al., Biochemie, 61, 1257-1272 (1979) and J. Gilbart et. al. Antimicrobial Agents and Chemotherapy, 37(1), 32-38 (1993)). The aaRS enzymes were prepared via standard cloning and expression methods and partially purified or partially purified from pathogen and HeLa cell extracts. The activity of each aaRS enzyme was standardized as trichloroacetic acid precipitable counts (cpm) obtained at 10 minutes reaction time at Km concentrations of substrates. For practical purposes, the minimal acceptable value is approximately 2000 cpm per 10 minute reaction.
(§2) Preincubations for IC50 determinations were initiated by incubating partially purified aaRS extracts in 50 mM HEPES (pH 7.5), 0.1 mM EDTA, 0.05 mg/ml bovine serum albumin, 10 mM dithiothreitol and 2.5% dimethyl sulfoxide with and without test compound (e.g. compound of the invention (preferably a compound of Formula I)) in a final volume of 20 microliters in a microtiter plate for 20 minutes at 25 C. Test compounds were typically present as serial dilutions in concentration ranges of 0.35 nM to 35 μM. Test compound solutions were prepared by dissolving test compound in 100% dimethyl sulfoxide and diluting to the final concentration with 50 mM HEPES, pH 7.5. IC50 determinations were typically performed in duplicate with each experiment containing 4-8 concentrations of inhibitor along with two no inhibitor controls.
(§3) IC50 incubations were initiated by supplementing the preincubation mixture to a final assay concentration of 10 mM MgCl2, 30 mM KCl, 10 mM KF, 50 mM HEPES (pH 7.5), 20 μM-500 mM ATP, 2-20 μM [^3H] amino acid, and 90-180 μM crude tRNA in a final volume of 35 microliters. The reaction was incubated at 25° C. for 5-20 minutes. At specified time points a 15 microliter aliquot was removed and added to a well of a Millipore filtration plate (Multiscreen-FB, MAFB NOB 10) containing 100 microliters of cold 5% (wt/vol) trichloroacetic acid. Trichloroacetic acid precipitable material was collected by filtration on Millipore Multiscreen filtration station, washed twice with cold 5% trichloroacetic acid, twice with water, and dried. Plates were typically allowed to air dry for several hours or they were baked at 50° C. in a vacuum oven for 30 minutes. The radioactivity on the dried plates was quantitated by the addition of Packard Microscint-20 to the wells and counting with a Packard TopCount scintillation counter.
(§4) Inhibitor activity was typically reported as a percentage of the control aaRS activity. The IC50 value was determined by plotting percent activity versus compound concentration in the assay and identifying the concentration at which 50% of the activity was remaining.

[2] = tested on: aminoacyl-tRNA synthetases (aaRS); experiment: aaRS charging and trichloroacetic acid precipitation assay, IC50 (S. aureus); assay type: biochemical; conditions: aaRS of S. aureus; values are range classes
Description: as §1, §2, §3, §4

E. faecium = experiment: Whole cell antimicrobial screen, MIC (E. faecium); assay type: cell-based; conditions: 2-fold dilutions, overnight incubation; for MIC: Enterococcus faecium, read-out: MIC (μg/mL) Efm
Description: (§5) Compounds were tested for antimicrobial activity against a panel of organisms according to standard procedures described by the National Committee for Clinical Laboratory Standards (NCCLS document M7-A3, Vol. 13, No. 25, 1993/NCCLS document M27-P, Vol. 12, No. 25, 1992). Compounds were dissolved in 100% DMSO and were diluted to the final reaction concentration (0.1 μg/ml-500 μg/ml) in microbial growth media. In all cases the final concentration of DMSO incubated with cells is less than or equal to 1%. For minimum inhibitory concentration (MIC) calculations, 2-fold dilutions of compounds were added to wells of a microtiter plate containing 1×10^5 bacteria or fungal cells in a final volume of 200 lambda of an appropriate media (Mueller-Hinton Broth; Haemophilus Test Media; Mueller-Hinton Broth+5% Sheep Blood; or […]). Plates were incubated overnight at an appropriate temperature (30° C.-37° C.) and optical densities (measure of cell growth) were measured using a commercial plate reader. The MIC value is defined as the lowest compound concentration inhibiting growth of the test organism.

S. aureus = experiment: Whole cell antimicrobial screen, MIC (S. aureus); assay type: cell-based; conditions: 2-fold dilutions, overnight incubation; for MIC: Staphylococcus aureus, read-out: MIC (μg/mL) Sa
Description: as §5

E. faecalis = experiment: Whole cell antimicrobial screen, MIC (Efs); assay type: cell-based; conditions: 2-fold dilutions, overnight incubation; for MIC: Enterococcus faecalis, read-out: MIC (μg/mL) Efs
Description: as §5

Structure (SMILES) | IC50 [1] | IC50 [2] | MIC (μg/mL) Efm (E. faecium) | MIC (μg/mL) Sa (S. aureus) | MIC (μg/mL) Efs (E. faecalis) | MIC (S. aureus) | MIC (E. faecalis) | MIC (E. faecium)
O=C(NCc1nc2ccccc2[nH]1)C1CC(c2nn[nH]n2)CN1Cc1ccc(Cl)cc1Cl (mixture of isomers) [130,706] | < 500 nM | < 500 nM | >100 µg/mL | >100 µg/mL | >100 µg/mL | – | – | –
O=C(NCc1nc2ccccc2[nH]1)[C@@H]1CCCN1Cc1ccc(Cl)cc1Cl [126,881] | 1000 to 10000 nM | < 500 nM | – | – | – | 100 µg/mL (≈ 248 µM) | < 100 µg/mL | –
O=C(NCc1nc2ccccc2[nH]1)[C@@H]1CC(O)CN1Cc1ccc(Cl)cc1Cl (stereo partly shown) [127,006] | 1000 to 10000 nM | < 500 nM | – | – | – | < 100 µg/mL | < 100 µg/mL | < 100 µg/mL
N#CC1CC(C(=O)NCc2nc3ccccc3[nH]2)N(Cc2ccc(Cl)cc2Cl)C1 (stereo not shown) [127,566] | 1000 to 10000 nM | 1000 to 10000 nM | – | – | – | > 100 µg/mL | > 100 µg/mL | > 100 µg/mL
O=C(NCc1nc2ccccc2[nH]1)C1CC(OCc2ccccc2)CN1Cc1ccc(Cl)cc1Cl (stereo not shown) [127,889] | 1000 to 10000 nM | 1000 to 10000 nM | – | – | – | > 100 µg/mL | > 100 µg/mL | > 100 µg/mL
O=C1C[C@@H](C(=O)NCc2nc3ccccc3[nH]2)N(Cc2ccc(Cl)cc2Cl)C1 [130,692] | 1000 to 10000 nM | 1000 to 10000 nM | – | – | – | > 100 µg/mL | > 100 µg/mL | > 100 µg/mL
O=C(NCc1nc2ccccc2[nH]1)[C@@H]1CCCCN1Cc1ccc(Cl)cc1Cl [130,693] | 1000 to 10000 nM | 1000 to 10000 nM | 100 µg/mL (≈ 240 µM) | <100 µg/mL | >100 µg/mL | – | – | –
O=C(NCc1nc2ccccc2[nH]1)C1CC(=NO)CN1Cc1ccc(Cl)cc1Cl (stereo not shown) [130,707] | 1000 to 10000 nM | 1000 to 10000 nM | – | – | – | > 100 µg/mL | > 100 µg/mL | > 100 µg/mL
CON=C1CC(C(=O)NCc2nc3ccccc3[nH]2)N(Cc2ccc(Cl)cc2Cl)C1 (stereo not shown) [130,708] | 1000 to 10000 nM | 1000 to 10000 nM | – | – | – | > 100 µg/mL | > 100 µg/mL | > 100 µg/mL
O=C(O)CON=C1CC(C(=O)NCc2nc3ccccc3[nH]2)N(Cc2ccc(Cl)cc2Cl)C1 (stereo not shown) [130,709] | 1000 to 10000 nM | 1000 to 10000 nM | – | – | – | > 100 µg/mL | > 100 µg/mL | > 100 µg/mL
O=C(NCc1nc2ccccc2[nH]1)[C@H]1CCCN1Cc1ccc(Cl)cc1Cl [130,724] | 1000 to 10000 nM | 1000 to 10000 nM | >100 µg/mL | <100 µg/mL | >100 µg/mL | – | – | –
O=C(NCc1nc2ccccc2[nH]1)C1CC(O)CN1Cc1ccc(Cl)cc1Cl (stereo not shown) [130,725] | 10000 to 60000 nM | 10000 to 60000 nM | >100 µg/mL | >100 µg/mL | >100 µg/mL | – | – | –
O=C(NCc1nc2ccccc2[nH]1)[C@@H]1C[C@H](O)CN1Cc1ccc(Cl)cc1Cl [130,900] | < 500 nM | < 500 nM | 100 µg/mL (≈ 238 µM) | 100 µg/mL (≈ 238 µM) | <100 µg/mL | – | – | –
O=C(NCc1nc2ccccc2[nH]1)[C@@H]1C[C@@H](O)CN1Cc1ccc(Cl)cc1Cl [130,901] | 501 to 1000 nM | < 500 nM | <100 µg/mL | <100 µg/mL | <100 µg/mL | – | – | –
Clc1ccc(CN2CCC[C@H]2COCc2nc3ccccc3[nH]2)c(Cl)c1 [130,928] | 1000 to 10000 nM | 1000 to 10000 nM | 100 µg/mL (≈ 256 µM) | 100 µg/mL (≈ 256 µM) | >100 µg/mL | – | – | –
O=C(O)CC1CC(C(=O)NCc2nc3ccccc3[nH]2)N(Cc2ccc(Cl)cc2Cl)C1 (stereo not shown) [130,973] | < 500 nM | < 500 nM | – | – | – | > 100 µg/mL | > 100 µg/mL | > 100 µg/mL

Source: patent publication US6579894B2, “Prolines as antimicrobial agents” (Merck & Co., Inc., priority 1999, dated 2003)
